Measurements: ChEMBL document CHEMBL6096706, “Discovery of WDR5-MLL1 and HDAC Dual-Target Inhibitors for the Treatment of Acute Myeloid Leukemia” (J Med Chem, 2025)

Columns and labels:
[1] = target: Histone deacetylase 1 (Homo sapiens, UniProt Q13547); assay: Inhibition of HDAC1 (unknown origin) by fluorescence based assay
[2] = target: Histone deacetylase 3 (Homo sapiens, UniProt O15379); assay: Inhibition of HDAC3 (unknown origin) by fluorescence based assay
[3] = test system: MOLM-13; assay: cells; assay type: functional, cell-based; details: Homo sapiens, MOLM-13, 72 h
Description: Antiproliferative activity against human MOLM-13 cells assessed as inhibition of cell growth measured after 72 hrs by CellTiterGlo assay

[4] = target: Histone deacetylase 2 (Homo sapiens, UniProt Q92769); assay: Inhibition of HDAC2 (unknown origin) by fluorescence based assay
[5] = target: Histone-lysine N-methyltransferase 2A (Homo sapiens, UniProt Q03164); assay: Inhibition of MLL1 (unknown origin) by fluorescence based assay
Sequence of Histone-lysine N-methyltransferase 2A (Q03164 1-2718 limits assumed): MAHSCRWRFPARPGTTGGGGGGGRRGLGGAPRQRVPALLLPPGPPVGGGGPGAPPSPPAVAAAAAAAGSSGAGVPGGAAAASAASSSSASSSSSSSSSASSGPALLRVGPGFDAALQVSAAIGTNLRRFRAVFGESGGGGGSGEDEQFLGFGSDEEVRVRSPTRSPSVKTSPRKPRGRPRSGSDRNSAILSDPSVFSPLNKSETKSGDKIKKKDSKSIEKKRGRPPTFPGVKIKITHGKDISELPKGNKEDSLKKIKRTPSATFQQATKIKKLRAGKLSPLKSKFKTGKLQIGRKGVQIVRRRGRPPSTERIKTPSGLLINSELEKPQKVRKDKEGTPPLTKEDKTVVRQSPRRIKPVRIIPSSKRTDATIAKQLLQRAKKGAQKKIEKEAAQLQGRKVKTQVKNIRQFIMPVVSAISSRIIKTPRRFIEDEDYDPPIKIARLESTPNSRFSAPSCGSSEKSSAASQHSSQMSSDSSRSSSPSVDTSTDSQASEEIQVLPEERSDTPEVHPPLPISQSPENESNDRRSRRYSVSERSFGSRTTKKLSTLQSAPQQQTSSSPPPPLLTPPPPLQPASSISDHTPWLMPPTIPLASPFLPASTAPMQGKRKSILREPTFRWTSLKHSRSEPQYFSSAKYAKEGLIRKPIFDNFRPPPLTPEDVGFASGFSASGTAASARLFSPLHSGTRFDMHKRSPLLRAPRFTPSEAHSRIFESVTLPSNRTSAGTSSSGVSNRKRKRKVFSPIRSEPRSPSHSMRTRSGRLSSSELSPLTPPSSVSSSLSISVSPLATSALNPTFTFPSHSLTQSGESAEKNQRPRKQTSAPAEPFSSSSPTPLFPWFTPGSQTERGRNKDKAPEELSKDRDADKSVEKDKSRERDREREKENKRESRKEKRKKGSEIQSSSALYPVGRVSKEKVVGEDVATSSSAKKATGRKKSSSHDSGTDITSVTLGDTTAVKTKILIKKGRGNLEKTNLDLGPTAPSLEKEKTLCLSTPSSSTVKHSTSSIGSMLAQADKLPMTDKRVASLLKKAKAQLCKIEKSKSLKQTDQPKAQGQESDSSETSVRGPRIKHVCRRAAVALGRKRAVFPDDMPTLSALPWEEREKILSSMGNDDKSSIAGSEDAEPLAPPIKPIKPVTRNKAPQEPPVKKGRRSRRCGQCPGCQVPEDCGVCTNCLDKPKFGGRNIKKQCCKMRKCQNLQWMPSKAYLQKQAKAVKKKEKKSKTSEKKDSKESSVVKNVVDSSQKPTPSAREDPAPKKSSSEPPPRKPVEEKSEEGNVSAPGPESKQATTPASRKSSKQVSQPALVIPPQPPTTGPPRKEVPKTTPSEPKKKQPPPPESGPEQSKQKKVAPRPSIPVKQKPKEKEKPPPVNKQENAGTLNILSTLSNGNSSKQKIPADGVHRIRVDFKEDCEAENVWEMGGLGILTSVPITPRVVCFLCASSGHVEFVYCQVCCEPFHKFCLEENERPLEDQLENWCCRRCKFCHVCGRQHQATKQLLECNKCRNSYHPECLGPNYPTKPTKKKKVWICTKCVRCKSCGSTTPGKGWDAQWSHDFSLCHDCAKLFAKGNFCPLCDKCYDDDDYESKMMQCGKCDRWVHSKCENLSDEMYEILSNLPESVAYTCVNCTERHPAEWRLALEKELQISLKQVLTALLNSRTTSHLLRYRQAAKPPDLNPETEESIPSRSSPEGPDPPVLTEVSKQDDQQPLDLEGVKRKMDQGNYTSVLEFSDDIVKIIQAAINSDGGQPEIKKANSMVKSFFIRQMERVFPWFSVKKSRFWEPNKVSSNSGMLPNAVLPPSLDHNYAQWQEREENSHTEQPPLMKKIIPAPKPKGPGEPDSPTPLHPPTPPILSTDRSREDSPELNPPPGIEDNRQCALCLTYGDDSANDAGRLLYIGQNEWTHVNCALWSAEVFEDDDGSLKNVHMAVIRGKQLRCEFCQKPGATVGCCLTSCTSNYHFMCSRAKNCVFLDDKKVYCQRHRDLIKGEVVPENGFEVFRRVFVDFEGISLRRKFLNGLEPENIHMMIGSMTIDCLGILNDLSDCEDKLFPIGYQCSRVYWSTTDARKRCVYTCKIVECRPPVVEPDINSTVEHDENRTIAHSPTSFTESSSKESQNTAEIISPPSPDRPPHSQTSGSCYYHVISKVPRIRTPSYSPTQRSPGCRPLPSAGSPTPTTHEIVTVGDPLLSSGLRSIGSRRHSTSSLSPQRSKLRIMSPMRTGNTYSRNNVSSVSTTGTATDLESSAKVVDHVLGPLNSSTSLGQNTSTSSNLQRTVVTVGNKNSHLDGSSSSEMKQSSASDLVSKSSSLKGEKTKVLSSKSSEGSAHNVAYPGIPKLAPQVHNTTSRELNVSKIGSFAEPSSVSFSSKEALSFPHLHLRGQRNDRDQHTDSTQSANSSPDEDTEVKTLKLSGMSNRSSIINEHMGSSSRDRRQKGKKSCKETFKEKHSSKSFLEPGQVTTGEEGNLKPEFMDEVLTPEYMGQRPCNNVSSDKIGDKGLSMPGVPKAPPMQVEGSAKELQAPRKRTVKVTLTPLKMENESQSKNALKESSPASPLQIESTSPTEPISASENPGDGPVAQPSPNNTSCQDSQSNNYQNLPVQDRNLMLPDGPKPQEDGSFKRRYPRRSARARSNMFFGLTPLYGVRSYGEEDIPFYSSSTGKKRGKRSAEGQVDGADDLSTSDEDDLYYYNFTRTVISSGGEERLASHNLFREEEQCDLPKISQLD
Sequence of Histone-lysine N-methyltransferase 2A (Q03164 2719-3969 limits assumed): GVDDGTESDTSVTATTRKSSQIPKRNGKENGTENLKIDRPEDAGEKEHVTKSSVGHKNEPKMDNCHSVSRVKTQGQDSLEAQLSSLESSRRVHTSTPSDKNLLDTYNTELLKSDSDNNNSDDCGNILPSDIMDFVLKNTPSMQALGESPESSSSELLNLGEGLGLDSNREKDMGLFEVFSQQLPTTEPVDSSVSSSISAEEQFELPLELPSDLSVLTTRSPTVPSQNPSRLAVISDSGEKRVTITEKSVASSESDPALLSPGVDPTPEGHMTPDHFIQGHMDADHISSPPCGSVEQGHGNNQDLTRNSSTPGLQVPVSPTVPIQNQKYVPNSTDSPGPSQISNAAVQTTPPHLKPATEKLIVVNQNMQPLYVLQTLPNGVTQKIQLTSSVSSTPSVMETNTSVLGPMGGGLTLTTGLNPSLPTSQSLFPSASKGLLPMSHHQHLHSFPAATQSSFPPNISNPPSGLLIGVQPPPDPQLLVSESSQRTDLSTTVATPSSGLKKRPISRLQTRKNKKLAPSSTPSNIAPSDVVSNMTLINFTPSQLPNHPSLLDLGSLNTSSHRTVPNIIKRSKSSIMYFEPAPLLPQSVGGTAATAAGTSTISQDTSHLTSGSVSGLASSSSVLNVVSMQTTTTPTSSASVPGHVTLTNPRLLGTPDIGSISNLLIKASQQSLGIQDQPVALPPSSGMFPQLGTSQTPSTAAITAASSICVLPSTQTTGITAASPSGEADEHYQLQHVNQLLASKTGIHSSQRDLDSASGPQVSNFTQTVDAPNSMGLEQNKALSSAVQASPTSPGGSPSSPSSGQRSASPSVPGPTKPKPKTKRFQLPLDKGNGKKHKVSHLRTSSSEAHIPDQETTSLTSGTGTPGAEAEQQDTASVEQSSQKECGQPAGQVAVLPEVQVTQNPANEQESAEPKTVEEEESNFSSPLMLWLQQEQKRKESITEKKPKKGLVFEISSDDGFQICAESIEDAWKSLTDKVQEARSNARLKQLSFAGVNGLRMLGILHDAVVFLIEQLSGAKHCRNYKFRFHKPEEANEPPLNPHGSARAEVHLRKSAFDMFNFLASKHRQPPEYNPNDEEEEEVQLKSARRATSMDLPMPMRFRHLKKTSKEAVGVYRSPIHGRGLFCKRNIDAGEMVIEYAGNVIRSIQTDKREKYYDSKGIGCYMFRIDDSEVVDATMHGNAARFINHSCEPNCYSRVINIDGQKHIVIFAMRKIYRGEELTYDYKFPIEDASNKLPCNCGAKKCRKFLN

[6] = test system: MV4-11; assay: Induction of apoptosis in human MV4-11 cells assessed as viable cells at 50 nmol/L incubated for 72 hrs by Annexin V/PI staining based flow cytometry analysis (reference value: 90.23%); assay type: functional; details: read-out: Activity
[7] = test system: MV4-11; assay: Induction of apoptosis in human MV4-11 cells assessed as late apoptotic cells at 50 nmol/L incubated for 72 hrs by Annexin V/PI staining based flow cytometry analysis (reference value: 5.14%); assay type: functional
[8] = test system: MV4-11; assay: Induction of apoptosis in human MV4-11 cells assessed as necrotic cells at 50 nmol/L incubated for 72 hrs by Annexin V/PI staining based flow cytometry analysis (reference value: 0.46%); assay type: functional
[9] = test system: MV4-11; assay: Induction of apoptosis in human MV4-11 cells assessed as early apoptotic cells at 100 nmol/L incubated for 72 hrs by Annexin V/PI staining based flow cytometry analysis (reference value: 4.17 %); assay type: functional
[10] = test system: MV4-11; assay: Induction of apoptosis in human MV4-11 cells assessed as late apoptotic cells at 100 nmol/L incubated for 72 hrs by Annexin V/PI staining based flow cytometry analysis (reference value: 5.14%); assay type: functional
[11] = test system: MV4-11; assay: Antitumor activity against human MV4-11 cells xenografted in mouse assessed as tumor growth inhibition at 20 mg/kg, ip administered daily for 17 days; assay type: functional; details: MV4-11, 408 h, time 17 day, read-out: TGI
[12] = Toxicity in mouse implanted in human MV4-11 cells assessed as body weight loss at 10 to 30 mg/kg, ip administered daily for 17 days; assay type: organism-based; details: in vivo, 408 h, dose 10-30 mg/kg, time 17 day
[13] = Toxicity in mouse implanted in human MV4-11 cells assessed as kidney damage at 10 to 30 mg/kg, ip administered daily for 17 days by H and E staining based analysis; assay type: organism-based; details: in vivo, 408 h, dose 10-30 mg/kg, time 17 day
[14] = test system: MV4-11; assay: Antiproliferative activity against human MV4-11 cells assessed as growth inhibition at 0.4 uM measured after 72 hrs by CellTiterGlo assay; assay type: functional; details: read-out: GI
[15] = test system: MV4-11; assay: Antiproliferative activity against human MV4-11 cells assessed as growth inhibition at 0.05 uM measured after 72 hrs in presence of 1 uM of vorinostat by CellTiterGlo assay; assay type: functional; details: read-out: GI
[16] = test system: MV4-11; assay: Antiproliferative activity against human MV4-11 cells assessed as growth inhibition at 0.1 uM measured after 72 hrs in presence of 0.5 uM of vorinostat by CellTiterGlo assay; assay type: functional; details: read-out: GI
[17] = test system: MV4-11; assay: Antiproliferative activity against human MV4-11 cells assessed as growth inhibition at 0.2 uM measured after 72 hrs in presence of 0.1 uM of vorinostat by CellTiterGlo assay; assay type: functional; details: read-out: GI
[18] = test system: MV4-11; assay: Antiproliferative activity against human MV4-11 cells assessed as growth inhibition at 0.2 uM measured after 72 hrs in presence of 0.2 uM of vorinostat by CellTiterGlo assay; assay type: functional; details: read-out: GI
[19] = test system: MV4-11; assay: Antiproliferative activity against human MV4-11 cells assessed as growth inhibition at 0.2 uM measured after 72 hrs in presence of 0.4 uM of vorinostat by CellTiterGlo assay; assay type: functional; details: read-out: GI
[20] = test system: MV4-11; assay: Antiproliferative activity against human MV4-11 cells assessed as growth inhibition at 0.4 uM measured after 72 hrs in presence of 0.5 uM of vorinostat by CellTiterGlo assay; assay type: functional; details: read-out: GI
[21] = test system: MV4-11; assay: Antiproliferative activity against human MV4-11 cells assessed as growth inhibition at 0.5 uM measured after 72 hrs in presence of 0.5 uM of vorinostat by CellTiterGlo assay; assay type: functional; details: read-out: GI
[22] = test system: MV4-11; assay: Antiproliferative activity against human MV4-11 cells assessed as growth inhibition at 1 uM measured after 72 hrs in presence of 0.1 uM of vorinostat by CellTiterGlo assay; assay type: functional; details: read-out: GI
[23] = test system: MV4-11; assay: Antiproliferative activity against human MV4-11 cells assessed as growth inhibition at 1 uM measured after 72 hrs in presence of 0.2 uM of vorinostat by CellTiterGlo assay; assay type: functional; details: read-out: GI
[24] = test system: MV4-11; assay: Antiproliferative activity against human MV4-11 cells assessed as growth inhibition at 1 uM measured after 72 hrs in presence of 1 uM of vorinostat by CellTiterGlo assay; assay type: functional; details: read-out: GI
[25] = test system: MV4-11; assay: Induction of apoptosis in human MV4-11 cells assessed as early apoptotic cells at 200 nM incubated for 72 hrs by Annexin V/PI staining based flow cytometry analysis (reference value: 0.76%); assay type: functional
[26] = test system: MV4-11; assay: Induction of apoptosis in human MV4-11 cells assessed as late apoptotic cells at 200 nM incubated for 72 hrs by Annexin V/PI staining based flow cytometry analysis (reference value: 6.42%); assay type: functional
[27] = test system: MV4-11; assay: Induction of apoptosis in human MV4-11 cells assessed as early apoptotic cells at 200 nM incubated for 72 hrs in presence of vorinostat by Annexin V/PI staining based flow cytometry analysis (reference value: 0.76 %); assay type: functional
[28] = test system: MV4-11; assay: Induction of apoptosis in human MV4-11 cells assessed as necrotic cells at 200 nM incubated for 72 hrs in presence of vorinostat by Annexin V/PI staining based flow cytometry analysis (reference value: 2.61%); assay type: functional
[29] = test system: MV4-11; assay: Induction of apoptosis in human MV4-11 cells assessed as viable cells at 400 nM incubated for 72 hrs in presence of vorinostat by Annexin V/PI staining based flow cytometry analysis (reference value: 96.68%); assay type: functional; details: read-out: Activity
[30] = test system: MV4-11; assay: Induction of apoptosis in human MV4-11 cells assessed as early apoptotic cells at 400 nM incubated for 72 hrs in presence of vorinostat by Annexin V/PI staining based flow cytometry analysis (reference value: 0.76 %); assay type: functional
[31] = test system: MV4-11; assay: Induction of apoptosis in human MV4-11 cells assessed as necrotic cells at 400 nM incubated for 72 hrs in presence of vorinostat by Annexin V/PI staining based flow cytometry analysis (reference value: 2.61%); assay type: functional

Sequence of Histone deacetylase 1 (Q13547 whole entry): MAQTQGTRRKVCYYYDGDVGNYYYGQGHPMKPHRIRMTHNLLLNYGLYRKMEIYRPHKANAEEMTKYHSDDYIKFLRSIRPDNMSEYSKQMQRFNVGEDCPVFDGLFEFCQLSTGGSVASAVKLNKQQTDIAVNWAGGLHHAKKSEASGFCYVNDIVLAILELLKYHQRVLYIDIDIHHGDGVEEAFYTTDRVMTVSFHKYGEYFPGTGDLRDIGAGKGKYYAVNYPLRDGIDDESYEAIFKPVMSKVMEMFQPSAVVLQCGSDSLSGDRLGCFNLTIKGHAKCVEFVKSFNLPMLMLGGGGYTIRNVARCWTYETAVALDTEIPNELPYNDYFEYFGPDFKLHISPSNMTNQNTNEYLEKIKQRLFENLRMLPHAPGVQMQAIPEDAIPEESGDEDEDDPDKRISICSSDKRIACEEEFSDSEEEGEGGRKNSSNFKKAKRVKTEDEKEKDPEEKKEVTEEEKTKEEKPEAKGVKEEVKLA
Sequence of Histone deacetylase 3 (O15379 whole entry): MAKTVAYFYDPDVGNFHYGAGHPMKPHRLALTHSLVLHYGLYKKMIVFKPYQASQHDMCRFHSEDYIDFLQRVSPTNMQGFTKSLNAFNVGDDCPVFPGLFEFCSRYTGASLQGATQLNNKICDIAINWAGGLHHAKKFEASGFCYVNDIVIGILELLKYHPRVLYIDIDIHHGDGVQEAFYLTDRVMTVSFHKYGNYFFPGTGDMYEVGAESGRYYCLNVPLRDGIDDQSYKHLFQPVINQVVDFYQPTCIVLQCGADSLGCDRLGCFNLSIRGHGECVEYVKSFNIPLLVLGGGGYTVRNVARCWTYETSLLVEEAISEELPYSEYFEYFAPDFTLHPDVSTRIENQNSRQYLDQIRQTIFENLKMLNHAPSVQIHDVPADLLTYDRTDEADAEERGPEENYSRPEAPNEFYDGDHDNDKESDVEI

Cc1c(F)c(N)cc(C(=O)Nc2cc(-c3ccc(C(=O)NCc4ccc(/C=C/C(=O)NO)cc4)cc3)ccc2N2CCN(C)CC2)c1Cl
IC50 [1]: 400 nM | IC50 [2]: 296 nM | IC50 [3]: 70 nM | IC50 [4]: 696 nM | IC50 [5]: 131 nM | viability at 0.05 µM [6]: 75.7% | Activity [7]: 10.86% | Activity [8]: 2.44% | Activity [9]: 19.42% | Activity [10]: 7.14% | inhibition in vivo at 20 mg/kg [11]: 69% | Activity [12]: Non-toxic | Activity [13]: Non-toxic

Cc1c(F)c(N)cc(C(=O)Nc2cc(-c3ccc(C(=O)N4CCOCC4)cc3)ccc2N2CCN(C)CC2)c1Cl
inhibition of growth at 0.4 µM [14]: 25.5% | inhibition of growth at 0.05 µM [15]: 86.7% | inhibition of growth at 0.1 µM [16]: 73.6% | inhibition of growth at 0.2 µM [17]: 45% | inhibition of growth at 0.2 µM [18]: 48% | inhibition of growth at 0.2 µM [19]: 60.3% | inhibition of growth at 0.4 µM [20]: 73.3% | inhibition of growth at 0.5 µM [21]: 73.2% | inhibition of growth at 1 µM [22]: 57.4% | inhibition of growth at 1 µM [23]: 61.6% | inhibition of growth at 1 µM [24]: 94.9% | Activity [25]: 7.03% | Activity [26]: 1.08% | Activity [27]: 33.87% | Activity [28]: 1.48% | viability at 0.4 µM [29]: 26.1% | Activity [30]: 54.05% | Activity [31]: 3.05%
